This is an account of results in ChEMBL document CHEMBL1136175, “Synthesis and antimycobacterial activity of capuramycin analogues. Part 2: acylated derivatives of capuramycin-related compounds” (Bioorg Med Chem Lett, 2003).

SMILES strings stand for the structures. ≈ marks a conversion by molar mass, not a printed value. A value given as a limit tells only on which side of the number the result lay.

One assay relates to Mycobacterium kansasii. As to the kind of experiment: Antimycobacterial activity against Mycobacterium kansasii ATCC 12478. Type of assay: functional.
Assay [1] deals with Mycolicibacterium smegmatis. The experiment in a line: Antimycobacterial activity was determined against Mycobacterium smegmatis SANK75075. Type of assay: functional.
In the next assay the test system is Mycobacterium avium. The experiment in a line: Antimycobacterial activity against Mycobacterium avium NIHJ1605. It is filed as functional.
Assay [2] addresses T1, Phospho-N-acetylmuramoyl-pentapeptide-transferase (Escherichia coli K-12, UniProt P0A6W3).
T1 sequence (P0A6W3 whole entry): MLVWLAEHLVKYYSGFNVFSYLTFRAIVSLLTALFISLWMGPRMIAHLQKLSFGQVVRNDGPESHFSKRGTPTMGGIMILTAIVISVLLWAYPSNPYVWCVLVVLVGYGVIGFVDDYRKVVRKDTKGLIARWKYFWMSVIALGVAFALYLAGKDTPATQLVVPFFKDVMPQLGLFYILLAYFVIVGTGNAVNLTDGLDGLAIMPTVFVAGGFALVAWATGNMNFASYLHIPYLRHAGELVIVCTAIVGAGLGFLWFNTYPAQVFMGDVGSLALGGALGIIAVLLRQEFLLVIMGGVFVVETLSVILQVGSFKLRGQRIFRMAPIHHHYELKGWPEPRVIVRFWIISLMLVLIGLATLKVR
The experiment in a line: Inhibitory concentration required against Translocase I.

For assay [3], the system named is Mycobacterium intracellulare. The experiment in a line: Antimycobacterial activity against Mycobacterium intracellular ATCC 1954 E-3. It is filed as functional.

Turning to `CCCCCC(=O)O[C@@H]1[C@H](OC)[C@@H]([C@@H](O[C@H]2OC(C(=O)N[C@H]3CCC[C@@H](C)NC3=O)=C[C@H](O)[C@@H]2O)C(N)=O)O[C@H]1n1ccc(=O)[nH]c1=O`, the MIC came out at 2 µg/mL (≈ 2.93 µM) against Mycobacterium kansasii, 50 µg/mL (≈ 73.3 µM) in assay [1], 16 µg/mL (≈ 23.5 µM) with Mycobacterium avium and 2 µg/mL (≈ 2.93 µM) in assay [3]. This compound showed a half-inhibitory concentration (IC50) in assay [2] of 63.1 nM.
For `CCCCCCO[C@@H]1[C@H](OC)[C@@H]([C@@H](O[C@H]2OC(C(=O)N[C@H]3CCC[C@@H](C)NC3=O)=C[C@H](O)[C@@H]2O)C(N)=O)O[C@H]1n1ccc(=O)[nH]c1=O`, the MIC against Mycobacterium kansasii was 32 µg/mL (≈ 47.9 µM); in assay [1], 50 µg/mL (≈ 74.9 µM); against Mycobacterium avium, 32 µg/mL (≈ 47.9 µM); in assay [3], 4 µg/mL (≈ 5.99 µM). The same compound showed an IC50 in assay [2] of 59.9 nM.
For the compound `CCCCCCCCCCCC(=O)O[C@@H]1[C@H](OC)[C@@H]([C@@H](O[C@H]2OC(C(=O)Nc3ccccc3)=C[C@H](O)[C@@H]2O)C(N)=O)O[C@H]1n1ccc(=O)[nH]c1=O`, the MIC was 8 µg/mL (≈ 11.2 µM) in the assay on Mycobacterium kansasii, 6.25 µg/mL (≈ 8.72 µM) in assay [1], 1 µg/mL (≈ 1.4 µM) with Mycobacterium avium and 4 µg/mL (≈ 5.58 µM) in assay [3]. Also, the IC50 in assay [2] was greater than 3490 nM.
As to `CCCCCCC(=O)O[C@@H]1[C@H](OC)[C@@H]([C@@H](O[C@H]2OC(C(=O)Nc3ccccc3)=C[C@H](O)[C@@H]2O)C(N)=O)O[C@H]1n1ccc(=O)[nH]c1=O`, the MIC in the assay with Mycobacterium kansasii stood at 0.5 µg/mL (≈ 0.773 µM); in assay [1] it was 25 µg/mL (≈ 38.7 µM); with Mycobacterium avium, 0.5 µg/mL (≈ 0.773 µM); in assay [3], 1 µg/mL (≈ 1.55 µM). In assay [2], this compound showed an IC50 of 371 nM.
For `CCCCCCCCCCCCCCCCOC(=O)O[C@@H]1[C@H](OC)[C@@H]([C@@H](O[C@H]2OC(C(=O)N[C@H]3CCC[C@@H](C)NC3=O)=C[C@H](O)[C@@H]2O)C(N)=O)O[C@H]1n1ccc(=O)[nH]c1=O`, the MIC in the assay on Mycobacterium kansasii was 8 µg/mL (≈ 9.39 µM); in assay [1], greater than 100 µg/mL; in the assay on Mycobacterium avium, 0.5 µg/mL (≈ 0.587 µM); in assay [3] it was 2 µg/mL (≈ 2.35 µM). The compound further yielded an IC50 in assay [2] greater than 2930 nM.
In the case of `CCCCCCCCOC(=O)O[C@@H]1[C@H](OC)[C@@H]([C@@H](O[C@H]2OC(C(=O)N[C@H]3CCC[C@@H](C)NC3=O)=C[C@H](O)[C@@H]2O)C(N)=O)O[C@H]1n1ccc(=O)[nH]c1=O`, the MIC came to 2 µg/mL (≈ 2.7 µM) against Mycobacterium kansasii, 25 µg/mL (≈ 33.8 µM) in assay [1], 0.25 µg/mL (≈ 0.338 µM) against Mycobacterium avium and 0.5 µg/mL (≈ 0.676 µM) in assay [3]. This compound also gave a concentration for half-maximal inhibition (IC50) in assay [2] of 676 nM.
On the same counts, the results for `CCCCCCCCCCCCCCCC(=O)O[C@@H]1[C@H](OC)[C@@H]([C@@H](O[C@H]2OC(C(=O)Nc3ccccc3)=C[C@H](O)[C@@H]2O)C(N)=O)O[C@H]1n1ccc(=O)[nH]c1=O` are 32 µg/mL (≈ 41.4 µM), 12.5 µg/mL (≈ 16.2 µM), 2 µg/mL (≈ 2.59 µM), 16 µg/mL (≈ 20.7 µM) and greater than 3230 nM.
For `CCCCCCCOC(=O)O[C@@H]1[C@H](OC)[C@@H]([C@@H](O[C@H]2OC(C(=O)N[C@H]3CCC[C@@H](C)NC3=O)=C[C@H](O)[C@@H]2O)C(N)=O)O[C@H]1n1ccc(=O)[nH]c1=O`, in that order: 2 µg/mL (≈ 2.76 µM), 50 µg/mL (≈ 68.9 µM), 0.25 µg/mL (≈ 0.344 µM), 1 µg/mL (≈ 1.38 µM) and 276 nM.
On the same counts, the results for `CCCCCCCCCCCC(=O)O[C@@H]1[C@H](OC)[C@@H]([C@@H](O[C@H]2OC(C(=O)N[C@H]3CCC[C@@H](C)NC3=O)=C[C@H](O)[C@@H]2O)C(N)=O)O[C@H]1n1ccc(=O)[nH]c1=O` are 0.5 µg/mL (≈ 0.653 µM), 1.56 µg/mL (≈ 2.04 µM), less than 0.063 µg/mL, less than 0.063 µg/mL and 2870 nM.
Regarding `CCCCCCCCCCO[C@@H]1[C@H](OC)[C@@H]([C@@H](O[C@H]2OC(C(=O)N[C@H]3CCC[C@@H](C)NC3=O)=C[C@H](O)[C@@H]2O)C(N)=O)O[C@H]1n1ccc(=O)[nH]c1=O`, the MIC against Mycobacterium kansasii was greater than 32 µg/mL; in assay [1] it was 25 µg/mL (≈ 34.5 µM); against Mycobacterium avium, 1 µg/mL (≈ 1.38 µM); in assay [3], 4 µg/mL (≈ 5.53 µM). This compound showed an IC50 in assay [2] of 884 nM.
In the case of `CCCCCCCCCC(=O)O[C@@H]1[C@H](OC)[C@@H]([C@@H](O[C@H]2OC(C(=O)Nc3ccccc3)=C[C@H](O)[C@@H]2O)C(N)=O)O[C@H]1n1ccc(=O)[nH]c1=O`, the MIC against Mycobacterium kansasii came out at 2 µg/mL (≈ 2.9 µM); in assay [1] it was 6.25 µg/mL (≈ 9.07 µM); in the assay with Mycobacterium avium, 0.5 µg/mL (≈ 0.726 µM); in assay [3] it was 1 µg/mL (≈ 1.45 µM). This compound showed an IC50 in assay [2] of 2760 nM.
For `CCCCCCCC(=O)O[C@@H]1[C@H](OC)[C@@H]([C@@H](O[C@H]2OC(C(=O)N[C@H]3CCC[C@@H](C)NC3=O)=C[C@H](O)[C@@H]2O)C(N)=O)O[C@H]1n1ccc(=O)[nH]c1=O`, in that order: 1 µg/mL (≈ 1.41 µM), 25 µg/mL (≈ 35.2 µM), 2 µg/mL (≈ 2.82 µM), 1 µg/mL (≈ 1.41 µM) and 268 nM.
In the case of `CCCCCO[C@@H]1[C@H](OC)[C@@H]([C@@H](O[C@H]2OC(C(=O)N[C@H]3CCC[C@@H](C)NC3=O)=C[C@H](O)[C@@H]2O)C(N)=O)O[C@H]1n1ccc(=O)[nH]c1=O`, the MIC is greater than 32 µg/mL with Mycobacterium kansasii, 100 µg/mL (≈ 153 µM) in assay [1], greater than 32 µg/mL with Mycobacterium avium and 4 µg/mL (≈ 6.12 µM) in assay [3]. Moreover, the concentration for half-maximal inhibition (IC50) in assay [2] was 76.5 nM.
Take `CCCCC(=O)O[C@@H]1[C@H](OC)[C@@H]([C@@H](O[C@H]2OC(C(=O)N[C@H]3CCC[C@@H](C)NC3=O)=C[C@H](O)[C@@H]2O)C(N)=O)O[C@H]1n1ccc(=O)[nH]c1=O`: the MIC in the assay on Mycobacterium kansasii stood at 16 µg/mL (≈ 24 µM); in assay [1], 100 µg/mL (≈ 150 µM); in the assay with Mycobacterium avium, 32 µg/mL (≈ 47.9 µM); in assay [3], 2 µg/mL (≈ 3 µM). For the same compound, the concentration for half-maximal inhibition (IC50) in assay [2] is 35.9 nM.
For the compound `CCCCCCC(=O)O[C@@H]1[C@H](OC)[C@@H]([C@@H](O[C@H]2OC(C(=O)N[C@H]3CCC[C@@H](C)NC3=O)=C[C@H](O)[C@@H]2O)C(N)=O)O[C@H]1n1ccc(=O)[nH]c1=O`, the MIC is 2 µg/mL (≈ 2.87 µM) in the assay on Mycobacterium kansasii, 50 µg/mL (≈ 71.9 µM) in assay [1], 4 µg/mL (≈ 5.75 µM) in the assay with Mycobacterium avium and 1 µg/mL (≈ 1.44 µM) in assay [3]. In assay [2], this compound had an IC50 of 64.7 nM.
On the same counts, the results for `CCCCCCCCCCCCCCCC(=O)O[C@@H]1[C@H](OC)[C@@H]([C@@H](O[C@H]2OC(C(=O)N[C@H]3CCC[C@@H](C)NC3=O)=C[C@H](O)[C@@H]2O)C(N)=O)O[C@H]1n1ccc(=O)[nH]c1=O` are 4 µg/mL (≈ 4.87 µM), 6.25 µg/mL (≈ 7.6 µM), less than 0.063 µg/mL, 0.25 µg/mL (≈ 0.304 µM) and 523 nM.
For `CO[C@H]1[C@@H](O)[C@H](n2ccc(=O)[nH]c2=O)O[C@@H]1[C@@H](O[C@H]1OC(C(=O)Nc2ccccc2)=C[C@H](O)[C@@H]1O)C(N)=O`, in that order: 8 µg/mL (≈ 15 µM), 6.25 µg/mL (≈ 11.7 µM), 16 µg/mL (≈ 29.9 µM), 4 µg/mL (≈ 7.48 µM) and 12.2 nM.
For `CCCCCCCCCCCCCC(=O)O[C@@H]1[C@H](OC)[C@@H]([C@@H](O[C@H]2OC(C(=O)N[C@H]3CCC[C@@H](C)NC3=O)=C[C@H](O)[C@@H]2O)C(N)=O)O[C@H]1n1ccc(=O)[nH]c1=O`, in that order: 4 µg/mL (≈ 5.04 µM), 3.13 µg/mL (≈ 3.94 µM), less than 0.063 µg/mL, 0.125 µg/mL (≈ 0.157 µM) and 5670 nM.
For `CCCCCCCCO[C@@H]1[C@H](OC)[C@@H]([C@@H](O[C@H]2OC(C(=O)N[C@H]3CCC[C@@H](C)NC3=O)=C[C@H](O)[C@@H]2O)C(N)=O)O[C@H]1n1ccc(=O)[nH]c1=O`, the minimum inhibitory concentration (MIC) against Mycobacterium kansasii was greater than 32 µg/mL; in assay [1], 50 µg/mL (≈ 71.9 µM); against Mycobacterium avium, 16 µg/mL (≈ 23 µM); in assay [3] it was 2 µg/mL (≈ 2.87 µM). In addition, in assay [2], the IC50 is 216 nM.
